SMILES strings stand for the structures.

By melting point is commonly meant the temperature, or range, at which the solid turns liquid. Regarding `COc1ccc(Sc2ccc([N+](=O)[O-])cc2[N+](=O)[O-])c(N)c1`, the melting point fell in the range of 169 to 172 °C.

Compound `CCCC(=O)c1cnc2c(C)cccc2c1Nc1ccccc1Cl` showed a melting point of 130 to 131 °C.

With `CC1(c2cccs2)Cc2cc(O)c(Cl)c(Cl)c2C1=O` (stereo unspecified), the melting point was 224 to 226 °C.

The compound `CCc1c(C(=O)c2cc(C)cc(C)c2)n(C/C=C/CO)c(=O)[nH]c1=O` displayed a melting point of 172 to 173 °C.

In turn, `CCCCCCCCCC(=O)OCc1cccn2c(=O)c(CCN3CCC(N4Cc5ccc(F)cc5O4)CC3)c(C)nc12` registered a melting point of 112 °C.

As to `CC(=O)NN=C(c1ccccc1)c1cc(C(C)(C)C)c(O)c(C(C)(C)C)c1`, the melting point was 205 to 206 °C.

`CC(=O)OCc1ccc(S(=O)(=O)c2ccc(C)nc2Nc2c(C)cc(C)cc2C)cc1` registered a melting point of 132 to 134 °C.

Take `CS(=O)c1cc(CCC(=O)O)nc(-c2nc(=O)c3ccccc3s2)c1` (stereo unspecified): the melting point was determined as 266 °C.

`CCCCNC(=O)NS(=O)(=O)c1ccccc1S(=O)(=O)N(C)C(F)(F)C(F)F` showed a melting point of 146 to 152 °C.

Consider `O=C(O)C1CCSc2ccc(Cl)cc21` (stereo unspecified), for which the melting point lay within 139 to 150 °C.

As for `COC(=O)C(NC(=O)c1cc2cc(Cl)ccc2[nH]1)C(C)c1ccccc1` (stereo unspecified), the melting point lay in the range of 135 to 136 °C.

With `COC(=O)C1(NC(=O)Cc2cc(C)ccc2C)CCN(OC)CC1`, the melting point was in the range of 91 to 93 °C.

Consider `O=C(Oc1cccc2c(-c3ccccc3)c3cccc(OC(=O)C4CCCCC4)c3c(OC(=O)C3CCCCC3)c12)C1CCCCC1`, for which the melting point stood at 235 °C.

In the case of `COc1ccc2[nH]c(=O)c(-c3nnnn3Cc3cccc(OCc4ccc5ccccc5n4)c3)cc2c1`, the melting point lay within 215 to 217 °C.

With `CCCS(=O)(=O)Oc1ccc(-c2nc3cc4c(cc3[nH]2)C(C)(C)CC(=O)N4)cc1`, the melting point fell in the range of 148 to 156 °C.

For the compound `COc1cc(/C=C/CCO)ccc1OCc1ccccc1`, the melting point lay in the range of 57 to 61 °C.

Turning to `O=C(O)Cc1c(C(=O)O)c2cc(Oc3ccc(C(F)(F)F)cc3)ccc2n1-c1ccc(C2CCNCC2)cc1`, the melting point lay within 256 to 258 °C.

Regarding `CC=CN1CC([N+](=O)[O-])=CN(C(C)c2ccc(Cl)nc2)C1(C)N` (stereo unspecified), the melting point lay in the range of 148 to 150 °C.

Take `O=C(O)CCCCCCCCCCSSCCCCCCCCCCC(=O)O`: the melting point came to 94 °C.

Turning to `O=C(O)C1CCc2cc(O)ccc2O1` (racemic), the melting point was 175 to 177 °C.

`CCOC(=O)c1[nH]c(C)c(C(C)CC)c1C` (stereo unspecified) displayed a melting point of 102 to 104 °C.

For `O=C(O)C1CCC(c2ccc(OCc3ccc4ccccc4n3)cc2)(c2ccc(OCc3ccc4ccccc4n3)cc2)CC1`, the melting point fell in the range of 194 to 199 °C.

The compound `CN1CCN(Cc2ccccc2Cl)C(C(=O)NCCCl)C1` (stereo unspecified) yielded a melting point of 74 to 75 °C.

As for `Cc1c(C(=O)C23CC4CC(CC(C4)C2)C3)oc2cc(F)ccc12`, the melting point fell in the range of 107 to 109 °C.

`COC1CCN2C(=O)c3cccc(N)c3C2C1` (stereo unspecified) came in with a melting point of 60 to 62 °C.

`Clc1ccc2scc(Br)c2c1` registered a melting point of 85 to 86 °C.

In the case of `Cc1cccc2c1nc(-c1ccccc1Cl)n2CC(C)O` (stereo unspecified), the melting point lay in the range of 164 to 165 °C.

As to `CCOC(=O)c1sc(CBr)nc1C`, the melting point was in the range of 48 to 58 °C.

`CCCNc1nc(NCc2ccc(NC(=O)c3ccc(F)cc3)cc2)c2ccc(C)cc2n1` showed a melting point of 170 to 174 °C.

On to `Cc1cn(CC(=O)N(CCNC(=O)OC(C)(C)C)CC(=O)O)c(=O)[nH]c1=O`, for which the melting point was 142 to 147 °C.

As for `CNC(=O)c1ccc2c(c1)OC(c1ccccc1)(c1ccccc1)O2`, the melting point lay within 144 to 145 °C.

`COC(=O)CCCCCOc1ccc(NC(=O)CO)cc1`: the melting point fell in the range of 91.5 to 94 °C.

In the case of `COc1ccc(CNC(=O)c2ccc3c(c2)c(=O)n(Cc2ccccc2)c(=O)n3C)cc1`, the melting point is 191 °C.

Compound `Cn1c(-c2ccc3ccccc3c2)nnc1S(C)=O` (stereo unspecified) returned a melting point of 224 to 226 °C.

Consider `Cc1nc(-c2ccc(C#N)cc2)sc1C(=O)N[C@H](C)[C@](O)(Cn1cncn1)c1ccc(F)cc1F`, for which the melting point was 109 to 111 °C.

With `CC(C)(C)Oc1ccc(CCC(=O)OCc2ccc([N+](=O)[O-])cc2)cc1`, the melting point was 30 to 32 °C.

In the case of `Cc1cc(C(O)=S)cc(N)c1Cl`, the melting point turned out to be 225 °C.

For `CCOC(=O)c1c(CC)ncnc1NCCc1ccc(CCO)cc1`, the melting point was in the range of 68 to 71 °C.

`CC(=O)Nc1cccc2c1S(=O)(=O)N=C2C1=C(O)C(C(C)(C)C)N(Cc2ccc(F)cc2)C1=O` (stereo unspecified) registered a melting point of 164 to 167 °C.

In turn, `CSC(=C[N+](=O)[O-])N1CCCCC1` registered a melting point of 65 to 67 °C.

On to `COc1ccc(N2C(=O)C(Oc3ccccc3)C2c2ccc(C(=O)O)cc2)cc1` (stereo unspecified), for which the melting point worked out at 246 °C.

For the compound `CCc1cc(C(=O)c2ccccc2Cl)c(-n2c(Cl)nnc2CNC(=O)c2cc3ccccc3[nH]2)s1`, the melting point fell in the range of 254 to 256 °C.

The compound `NC(C(=O)O)c1ccc(C(=O)O)cc1F` (stereo unspecified) showed a melting point of 250 to 255 °C.

For `CCOP(=O)(OCC)c1ccc(/C=C(\C)c2ccc3c(c2)C(C)(C)CCC3(C)C)cc1`, the melting point is 72.5 to 73.5 °C.

As to `CCn1c(C)nc2c(C3=NC(C)(C(C)C)C(=O)N3)c(C(=O)OC)ccc21` (stereo unspecified), the melting point lay within 189 to 191 °C.

`CN1CCN(c2cccc(-c3cnn4c(N)c(Cc5cccc(Br)c5)cnc34)c2)CC1`: the melting point was 170 to 171 °C.

With `CC1(Cn2nc(-c3ccccc3)oc2=O)Cn2cc([N+](=O)[O-])nc2O1` (stereo unspecified), the melting point was 225 to 227 °C.

For `CCOc1cc(C2COCCC2NC(=O)c2ccc(C(=O)N(C(C)C)C(C)C)cc2)ccc1OC` (stereo unspecified), the melting point was in the range of 166 to 168 °C.

Compound `CC(C)(C)c1nc(C(N)=S)ncc1O` displayed a melting point of 169 to 171 °C.

Take `CC(C)[C@H](NC(=O)N(C)Cc1ccccn1)C(=O)N[C@@H](Cc1ccccc1)C[C@H](O)[C@H](Cc1ccccc1)NC(=O)OCc1cccnc1`: the melting point was in the range of 58 to 61 °C.

In turn, `COc1ccc(CN2CCC(C(=O)NO)(S(=O)(=O)c3ccc(OC)cc3)CC2)cc1` returned a melting point of 175 °C.

In turn, `Cc1cc2c(-c3ccccc3)c(CCNC(=O)OCc3ccccc3)n(C)c(=O)c2cc1C` displayed a melting point of 227 to 228 °C.

As to `CS(=O)c1ccc(-c2coc3ccc(-c4nnc(N)o4)cc23)cc1Cl` (stereo unspecified), the melting point is 266 to 267 °C.

On to `CCN1C(=O)C(C)(C)C(=O)N(C)c2cc(CN(CCn3ccc4oc(C)cc4c3=O)Cc3cncnc3)ccc21`, for which the melting point is 146 to 148 °C.

Consider `CCS(=O)(=O)C(NC(C)=O)C(=O)NCc1ccccc1` (stereo unspecified), for which the melting point lay within 161 to 163 °C.

`Cc1nc(N)c(C#N)c(N2CCc3ccccc3CC2)n1` showed a melting point of over 200 °C.

For the compound `CC(=O)Nc1ncc(/C=C\c2ccc([N+](=O)[O-])cc2)s1`, the melting point is 221 to 223 °C.

Compound `CCN(CC)c1nc2ncnn2c2c1cnc1c2cnn1CC` had a melting point of 215 to 217 °C.

On to `O=C(O)Cc1ccc(CN2CCN(C(c3ccccc3)c3ccccc3)CC2)cc1`, for which the melting point was in the range of 183 to 185 °C.

For `CC1(C)Oc2ccc(C#N)cc2[C@@H](NC(=O)Nc2cccc(-c3nnn[nH]3)c2)[C@@H]1O`, the melting point is 204 to 208 °C.

`CC(C)(C)OC(=O)NCc1ccc(N2CC(C(=O)O)OC2=O)cc1` (stereo unspecified) yielded a melting point of 166 °C.

`c1ccc2cc(Cc3ccncc3)ccc2c1` had a melting point of 66 to 67 °C.

Turning to `Cc1cc(-c2ccc(Cl)cc2)nc(-n2cnc(-c3ccc(S(N)(=O)=O)s3)c2)n1`, the melting point was 281 °C.

As for `Cc1sc(N2C(=O)c3ccccc3C2=O)c(C(=O)c2ccc(Cl)cc2)c1CN(C)Cc1ccccc1`, the melting point lay in the range of 197 to 199 °C.

The compound `COC(=O)C(O)C(F)(F)F` (stereo unspecified) showed a melting point of 50 to 53 °C.

The compound `Cc1nnc(OC(=O)NC(C)(C)C)n1-c1ccc(Cl)cn1` yielded a melting point of 132 to 134 °C.

In turn, `C=CCOc1cc(C)c2c(C)cc(=O)oc2c1` gave a melting point of 178 °C.

Consider `CCC(C#N)(C#N)Cc1ccc(Cl)cc1`, for which the melting point stood at 70.9 °C.

`CC(C)(C)OC(=O)N1CCN(C[C@H](O)Cn2c3ccccc3c3cc(Br)ccc32)CC1` gave a melting point of 75 to 85 °C.

Turning to `Cc1ccn(NS(=O)n2ccnc2)c(=N)c1` (stereo unspecified), the melting point is 176 to 177 °C.

Take `CC(C)(C)c1cc(CCc2ccccc2NC(=O)NCCCC2CCCCC2)cc(C(C)(C)C)c1O`: the melting point was determined as 166 °C.

As to `COc1ccc(-c2nnc(NC3CCN(Cc4ccccc4)CC3)c3cc(OC)cc(OC)c23)cc1`, the melting point turned out to be 168 °C.

`c1ccc(COc2ccc(Cc3nnc(Nc4ccc5c(c4)ncn5-c4ccccc4)c4ccccc34)cc2)cc1`: the melting point lay in the range of 229 to 231 °C.

For `CNC(=O)c1cccc(NC(=O)CCc2ccccc2)c1`, the melting point lay within 142 to 143 °C.

In the case of `CNc1cc(Br)nc(S(=O)(=O)c2ccc([N+](=O)[O-])cc2)c1`, the melting point fell in the range of 191 to 192 °C.

`CCC(=O)NC1=C(OCCOC)C(=O)c2ccccc2C1=O`: the melting point was in the range of 116 to 117 °C.

In turn, `N#Cc1ccc2c(c1)C(=O)CC1(CCCCC1)O2` displayed a melting point of 92 to 93 °C.

`CC(C)C(NC(=O)N(C)Cc1ccccn1)C(=O)N(C(=O)C(NC(=O)N(C)Cc1nccs1)C(C)C)C(Cc1ccccc1)CC(O)CCc1ccccc1` (stereo unspecified) came in with a melting point of 156 to 158 °C.

In turn, `Cc1ccc(C(Cn2ccnc2)C(=O)c2ccc(Cl)cc2Cl)cc1` (stereo unspecified) had a melting point of 92 to 96 °C.

With `Cc1cc(-n2cncn2)c2cccc(OCc3c(Cl)ccc(S(=O)(=O)N4CCC[C@H]4C(=O)NCC4CCN(CCOCCO)CC4)c3Cl)c2n1`, the melting point is 82 °C.

As for `CC(=O)NCC1CC1c1c(C)ccc2nn(C)cc12` (stereo unspecified), the melting point lay within 139 to 140 °C.

In the case of `Clc1cc(-c2cnco2)nc(Cl)c1Cl`, the melting point was in the range of 128 to 130 °C.

As for `O=C(Nc1cc(C2CC2)n[nH]1)c1ccc[nH]1`, the melting point was 207 to 209 °C.

The compound `CCOC(=O)c1ccc(NC(=O)C(CSC(C)=O)Cc2ccccc2)cc1` (stereo unspecified) registered a melting point of 119 to 121 °C.

As for `Cc1cc(-n2nc(C(F)F)cc2-c2ccc(S(C)(=O)=O)cc2)ccc1F`, the melting point lay within 154 to 155 °C.

Compound `CCOC(=O)C1(C(=O)OCC)Oc2ccc(CN/C=C3\C(=O)NC(=O)c4ccc(Br)cc43)cc2O1` displayed a melting point of 222 to 223 °C.

These data come from a melting point compilation (Tetko et al.; mined from patent text by program, amines drawn as free bases though some values may be those of a salt).
